Results: paper PMC10609273, “Radiosynthesis and Early Evaluation of a Positron Emission Tomography Imaging Probe [^18F]AGAL Targeting Alpha-Galactosidase A Enzyme for Fabry Disease” (Molecules, 2023)

Assays:
CYP2C8 = target: T1, CYP2C8 (Homo sapiens, UniProt P10632); assay: Reversible CYP inhibition in pooled HLMs; type: in vitro ADME; settings: 30 µM compound, substrate amodiaquine
T1 construct: from tissue; host or cells: pooled human liver microsomes (n = 200)
T1 sequence (P10632 1-490): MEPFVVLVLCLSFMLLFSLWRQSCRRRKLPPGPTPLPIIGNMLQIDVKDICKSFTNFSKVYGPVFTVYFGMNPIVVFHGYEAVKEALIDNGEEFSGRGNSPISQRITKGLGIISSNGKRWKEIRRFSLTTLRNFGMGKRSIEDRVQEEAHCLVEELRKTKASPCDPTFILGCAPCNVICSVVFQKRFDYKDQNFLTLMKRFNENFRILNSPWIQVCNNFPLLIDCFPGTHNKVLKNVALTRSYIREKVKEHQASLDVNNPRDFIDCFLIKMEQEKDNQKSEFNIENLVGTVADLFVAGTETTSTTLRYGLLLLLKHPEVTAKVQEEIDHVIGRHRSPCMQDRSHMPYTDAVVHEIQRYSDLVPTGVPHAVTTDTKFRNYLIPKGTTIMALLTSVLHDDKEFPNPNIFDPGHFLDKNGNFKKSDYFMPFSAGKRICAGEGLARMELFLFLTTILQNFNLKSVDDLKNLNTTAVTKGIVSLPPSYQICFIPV
Description: (§1) All chemicals and reagents including control compounds were purchased from commercial sources such as Sigma-Aldrich or Toronto Research Chemicals. The test article was tested for reversible inhibition of CYPs in human liver microsomes (HLM) (0.2 mg/mL protein) at a concentration range of 0–30 μM. Each condition was incubated in duplicate. The test article (0–30 μM), NADPH, and the CYP-selective probe substrate were incubated in a 96-well plate at 37 °C in 0.1 M potassium phosphate buffer, pH 7.4. The reactions were initiated by adding the HLMs. The total reaction volume was 100 μL.
(§2) After the incubation period (10 min for CYP1A2, 2B6, and 2C9; 15 min for CYP2C19; and 4 min for CYP2C8 and 2D6 to accommodate linear kinetic conditions) at 37 °C, the reactions were terminated by the addition of 100 μL of ice-cold acetonitrile-containing carbutamide as an IS, then centrifuged at 2500× g for 10 min at 2 °C. A 150 μL aliquot of supernatant for each CYP assay, except for CYP1A2, was then transferred to a new plate for analysis. For CYP1A2, 80 μL of supernatant was transferred to the plate and further diluted with 80 μL of water before analysis. All samples were analyzed with liquid chromatography with tandem mass spectrometry (LC–MS/MS).

CYP2C9 = target: T2, CYP2C9 (Homo sapiens, UniProt P11712); assay: Reversible CYP inhibition in pooled HLMs; type: in vitro ADME; settings: 30 µM compound, substrate diclofenac
T2 construct: from tissue; host or cells: pooled human liver microsomes (n = 200)
Description: as §1, §2

[1] = LogD determination, miniaturized shake flask method; type: physicochemical; settings: octanol/buffer (1:1); octanol/buffer pH 7.4 (1:1), 66.6 μM
Description: The distribution of AGAL between an organic solvent (octanol) and aqueous buffer (pH 7.4) was tested using the miniaturized shake flask method in octanol/buffer (1:1). This was accomplished by spiking the test compound (prepared in DMSO) into pre-equilibrated octanol/buffer phases at a concentration of 66.6 μM followed by shaking at 880 rpm for 1 h. The concentration of the test compound in both phases was analyzed using LC–MS/MS.

[2] = Plasma stability study, human; type: in vitro ADME
Description: (§3) Briefly, plasma stability was assessed by incubating compounds in the presence of human (pooled) and mouse (pooled) plasma (Bioreclamation, Westbury, NY, USA). All chemicals and reagents including control compounds were purchased from commercial sources such as Sigma-Aldrich or Toronto Research Chemicals. Plasma incubations were conducted by placing plasma (95 μL) in a 96-well microtiter plate and warming to 37 °C for 5 min. The reaction was initiated with the addition of the test article (5 μL of 20 μM), totaling 100 μL in incubation volume. At 0, 15, 30, 60, and 120 min time points, the reactions were terminated with the addition of acetonitrile-containing carbutamide (as an internal standard). The terminated samples were then centrifuged at 2 °C to pellet the protein, and the supernatant was injected onto an LC–MS. The test article was monitored for loss over time and the t1/2 was determined.

[3] = target: 167 protein targets (human and rodent recombinant receptors and binding sites); assay: Eurofins SpectrumScreen selectivity panel
Description: The AGAL molecule had ≥50% inhibition of specific binding or activity with IC50 values > 10 µM for a range of human and rodent recombinant receptors and binding sites (e.g., calcium and potassium channels and various subtypes of adrenergic, bombesin, calcitonin, serotonin, acetylcholine, histamine, and glutamate receptors or transporters).
The AGAL molecule was tested for estimated inhibition potency (IC50) and/or inhibition constants (Ki) on 167 protein targets (Eurofins SpectrumScreen).

[4] = Plasma stability study, mouse; type: in vitro ADME
Description: as §3

T2 sequence (P11712 whole entry): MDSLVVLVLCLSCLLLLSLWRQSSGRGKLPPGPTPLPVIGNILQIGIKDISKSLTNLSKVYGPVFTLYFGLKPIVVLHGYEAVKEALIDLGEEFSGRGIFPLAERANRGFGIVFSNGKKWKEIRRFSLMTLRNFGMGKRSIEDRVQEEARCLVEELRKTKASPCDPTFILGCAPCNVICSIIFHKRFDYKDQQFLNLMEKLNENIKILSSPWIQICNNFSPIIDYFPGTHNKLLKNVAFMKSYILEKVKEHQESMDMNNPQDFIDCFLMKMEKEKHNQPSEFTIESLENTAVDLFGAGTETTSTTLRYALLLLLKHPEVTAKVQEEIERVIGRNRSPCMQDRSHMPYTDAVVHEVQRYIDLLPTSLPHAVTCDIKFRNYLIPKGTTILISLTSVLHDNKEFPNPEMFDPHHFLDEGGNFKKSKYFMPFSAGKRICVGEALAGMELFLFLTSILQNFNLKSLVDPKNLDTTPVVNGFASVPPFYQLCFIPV

- reversible inhibition of CYP2C8 activity (CYP2C8): no significant loss of CYP activity
- reversible inhibition of CYP2C9 activity (CYP2C9): no significant loss of CYP activity
- logD at 1 h [1]: -0.43
- parent remaining ([2]; 30 min post-incubation): 93%
- half-life at 1 µM ([2]; pooled plasma, 37 °C, read-out: Plasma Half-Life, t1/2): 3.47 h
- IC50 ([3]; range of human and rodent recombinant receptors and binding sites, read-out: IC50 values for off-target receptors and binding sites): > 10 µM
- inhibition of specific binding or activity ([3]; selectivity panel, >160 proteins): ≥ 50%
- Plasma Half-Life, t1/2 ([4]; 37 °C): 9.83 min
- parent remaining ([4]; 30 min post-incubation): 18%
- half-life at 1 µM ([4]; mouse, pooled plasma, 37 °C, read-out: Plasma Half-Life, t1/2): < 0.167 h
Structure (SMILES): O=C(CCCCCCCn1cc(CCCF)nn1)N1[C@@H]2[C@H](O)[C@@H](O)[C@@H](O)[C@@H](CO)[C@@H]21 [AGAL]
